Test systems include U251 CNS; CCRF-CEM leukemia; A498 renal; TK-10 renal; SK-MEL-28 melanoma; SNB-19 CNS; NCI-H23 lung; MALME-3M melanoma; IGROV1 ovarian.
Common to all, as to experiment: NCI tumour cell line growth inhibition, 48 h

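Cells were grown in 96-well plates and exposed to each compound for 48 hours at five concentrations; endpoints were interpolated linearly between bracketing concentrations, or set to the highest concentration if not reached. The concentration for 50% growth inhibition is given as GI50. TGI is the concentration that stops growth completely.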 Bounds are passed on as bounds.

With `OCCN1CCN2C=C(C3CCCC4N(CCO)CCN34)CCC21` (configuration not stated), the TGI with U251 CNS is above 100 µM; in the assay with CCRF-CEM leukemia, 36.3 µM; in the assay with A498 renal, above 100 µM; with TK-10 renal, above 100 µM; with SK-MEL-28 melanoma, above 100 µM; in the assay on SNB-19 CNS it was above 100 µM. For the same molecule, the TGI in the assay with NCI-H23 lung, with MALME-3M melanoma and with IGROV1 ovarian was above 100 µM throughout.

Turning to `NN1C(=O)C(CCO)S/C1=N/N=C1/SC(CCO)C(=O)N1N` (configuration not stated), the TGI with U251 CNS, in the assay with CCRF-CEM leukemia, with A498 renal, with SK-MEL-28 melanoma, in the assay with SNB-19 CNS and with NCI-H23 lung was above 100 µM throughout. Moreover, the TGI with MALME-3M melanoma and in the assay on IGROV1 ovarian was above 100 µM each time.

Regarding `N/N=c1\c2ccccc2c2cc3c(cc12)/c(=N/N)c1ccccc13`, the TGI with U251 CNS, in the assay with CCRF-CEM leukemia, in the assay with SK-MEL-28 melanoma, in the assay on SNB-19 CNS, with NCI-H23 lung and in the assay on MALME-3M melanoma was above 100 µM each time. This molecule gave a TGI in the assay with IGROV1 ovarian above 100 µM.

In the case of `CC#CC1C2CCCC1(CSc1ccccc1)NC(=O)O2` (configuration not stated), the TGI in the assay on U251 CNS, in the assay with A498 renal, with TK-10 renal, in the assay on SNB-19 CNS, in the assay with NCI-H23 lung and with MALME-3M melanoma was above 100 µM in each case. Moreover, the TGI in the assay with IGROV1 ovarian was above 100 µM.

For `CC(=O)[CH-]C(=O)c1ccccc1.CC(=O)[CH-]C(=O)c1ccccc1.C[C@]12CCC(=O)C=C1CC[C@@H]1C2CC[C@@]2(C)C1CC[C@@H]2[O-].C[C@]12CCC(=O)C=C1CC[C@@H]1C2CC[C@@]2(C)C1CC[C@@H]2[O-].Cl.[Ti+4]` (some centres not stated), the GI50 is 23.8 µM in the assay with CCRF-CEM leukemia; 16.5 µM in the assay with A498 renal; 29.4 µM in the assay with TK-10 renal; 32.9 µM in the assay with SK-MEL-28 melanoma; 16.2 µM with NCI-H23 lung; 20.1 µM in the assay with MALME-3M melanoma. In the assay with IGROV1 ovarian, the GI50 is 21.8 µM. Moreover, the TGI in the assay on CCRF-CEM leukemia is above 100 µM; in the assay with A498 renal, 30.8 µM; in the assay with TK-10 renal it was above 100 µM; with SK-MEL-28 melanoma, above 100 µM; in the assay on NCI-H23 lung, 32.1 µM; with MALME-3M melanoma, 46.8 µM. For the same molecule, in the assay on IGROV1 ovarian, the TGI stood at 46.4 µM.

With `c1ccc2c(c1)N=C(c1cccc3ccccc13)CC(c1ccc3c(c1)OCO3)S2` (configuration not stated), the TGI in the assay with U251 CNS, in the assay with CCRF-CEM leukemia, with A498 renal, with TK-10 renal, with SNB-19 CNS and in the assay on NCI-H23 lung was above 100 µM throughout. In addition, the TGI in the assay with MALME-3M melanoma and in the assay on IGROV1 ovarian was above 100 µM in each case.

As for `O=C(/C(=C\c1ccc(Cl)cc1)c1ccccc1)c1ccccc1`, the TGI in the assay on U251 CNS, in the assay with CCRF-CEM leukemia, in the assay with A498 renal, with TK-10 renal, in the assay on SK-MEL-28 melanoma and in the assay on NCI-H23 lung was above 100 µM throughout. For the same molecule, the TGI in the assay with MALME-3M melanoma and in the assay on IGROV1 ovarian was above 100 µM in each case.

Consider `CC(C)NC(=O)CCN(C(=O)O)S(=O)(=O)c1ccc(NC(=O)c2ccccc2)cc1`, for which the TGI with U251 CNS was 32.1 µM; in the assay with CCRF-CEM leukemia, above 63.4 µM; in the assay on A498 renal, above 100 µM; in the assay on TK-10 renal it was above 100 µM; with SK-MEL-28 melanoma, above 100 µM; with SNB-19 CNS, above 100 µM. Further, the TGI in the assay on NCI-H23 lung, in the assay with MALME-3M melanoma and with IGROV1 ovarian was above 100 µM throughout.

In the case of `Cc1ccc(NC(=O)/C(Cl)=C(/Cl)C(=O)O)cc1`, the TGI in the assay on U251 CNS was 30.9 µM; in the assay with CCRF-CEM leukemia, 5.75 µM; in the assay on A498 renal, above 100 µM; with TK-10 renal it was 33 µM; with SK-MEL-28 melanoma it was 33 µM; in the assay on SNB-19 CNS, above 100 µM. For the same molecule, the results for the TGI with NCI-H23 lung, in the assay with MALME-3M melanoma and with IGROV1 ovarian were 31.8 µM, 29.3 µM and 61.1 µM, respectively.

On to `Cc1ccc(S(=O)OCC23CC4CC(CC(C4)C2)C3)cc1` (configuration not stated), for which the TGI in the assay with U251 CNS, in the assay with A498 renal, in the assay on TK-10 renal, in the assay on SK-MEL-28 melanoma, with SNB-19 CNS and in the assay with NCI-H23 lung was above 100 µM in each case. The TGI with MALME-3M melanoma and with IGROV1 ovarian was above 100 µM each time.

Consider `O=C(COC(=O)c1cccc2c(=O)c3ccccc3[nH]c12)Nc1ccc(C(=O)O)cc1`, for which the TGI with U251 CNS is above 100 µM; with CCRF-CEM leukemia, above 100 µM; with A498 renal it was above 100 µM; in the assay with TK-10 renal, above 10 µM; in the assay on SK-MEL-28 melanoma, above 100 µM; in the assay with SNB-19 CNS it was above 100 µM. Further, the TGI in the assay on NCI-H23 lung, with MALME-3M melanoma and in the assay with IGROV1 ovarian was above 100 µM each time.

Turning to `Clc1cc(Cl)cc(N2N=C(c3cccc(Nc4ccncc4)c3)CC2c2ccc3c(c2)OCO3)c1` (configuration not stated), the GI50 with CCRF-CEM leukemia was 2.72 µM; with A498 renal, 1.34 µM; in the assay with SK-MEL-28 melanoma it was 1.84 µM; in the assay with NCI-H23 lung, 1.79 µM; in the assay on IGROV1 ovarian, 1.62 µM. The TGI in the assay on CCRF-CEM leukemia is 18.4 µM; with A498 renal, 4.54 µM; in the assay with SK-MEL-28 melanoma, 3.36 µM; with NCI-H23 lung, 3.45 µM; in the assay with IGROV1 ovarian, 3.18 µM.

In the case of `NCCNCc1c2ccccc2c(CNCCN)c2ccccc12`, the TGI with U251 CNS is 97.7 µM; in the assay with CCRF-CEM leukemia it was 86.2 µM; in the assay on A498 renal it was 75.3 µM; in the assay with TK-10 renal it was above 100 µM; in the assay on NCI-H23 lung it was 35.2 µM; with MALME-3M melanoma it was 29.8 µM. Further, in the assay on IGROV1 ovarian, the TGI is above 100 µM.

In the case of `Cc1cc(C)nc(NS(=O)(=O)c2ccc(Nc3c4ccc(Cl)cc4nc4c(C(=O)NCCN(C)C)cccc34)cc2)n1`, the TGI with U251 CNS, with CCRF-CEM leukemia, with A498 renal, in the assay with TK-10 renal, with SK-MEL-28 melanoma and with SNB-19 CNS was above 100 µM each time. Moreover, the TGI in the assay on NCI-H23 lung, with MALME-3M melanoma and in the assay on IGROV1 ovarian was above 100 µM throughout.

On to `COC(=O)C(Cc1nc2ccccc2nc1C)/C(=N\NC(N)=O)C(=O)Nc1cccc([N+](=O)[O-])c1` (configuration not stated), for which the TGI in the assay with U251 CNS, with CCRF-CEM leukemia, in the assay with A498 renal, in the assay with TK-10 renal, in the assay with SK-MEL-28 melanoma and in the assay on SNB-19 CNS was above 100 µM each time. The TGI with NCI-H23 lung, in the assay with MALME-3M melanoma and in the assay on IGROV1 ovarian was above 100 µM in each case.

`COc1ccccc1NC(=O)c1nc2ccc([N+](=O)[O-])cc2nc1C`: the TGI in the assay with U251 CNS, with CCRF-CEM leukemia, in the assay with A498 renal, with TK-10 renal, in the assay with SK-MEL-28 melanoma and with SNB-19 CNS was above 100 µM in each case. Moreover, the TGI in the assay on NCI-H23 lung, with MALME-3M melanoma and in the assay with IGROV1 ovarian was above 100 µM each time.

With `CCNC(=O)O/N=C1\CCC2[C@@H]3CC=C4C[C@@H](OC5CCCCO5)CC[C@]4(C)C3CC[C@]12C` (some centres not stated), the TGI with U251 CNS was 4.29 µM; in the assay on A498 renal it was above 100 µM; with TK-10 renal, 3.81 µM; in the assay on SK-MEL-28 melanoma, 10.8 µM; in the assay with SNB-19 CNS, 9.94 µM; in the assay on NCI-H23 lung, 11.1 µM. Besides, in the assay on IGROV1 ovarian, the TGI is above 100 µM.

Turning to `Clc1ccc(-c2c(C3=NCCCN3)nnn2-c2ccccc2)cc1`, the TGI in the assay on U251 CNS, with CCRF-CEM leukemia, with A498 renal, with TK-10 renal, in the assay with SK-MEL-28 melanoma and with SNB-19 CNS was above 100 µM each time. Moreover, the TGI with NCI-H23 lung, with MALME-3M melanoma and with IGROV1 ovarian was above 100 µM each time.

As for `C=C[C@]1(C)CCC2=C(CCC3C2(C)CCC[C@@]3(C)COC(C)=O)C1` (some centres not stated), the TGI with U251 CNS worked out at 31.7 µM; in the assay on CCRF-CEM leukemia, 35.4 µM; with A498 renal, 54.3 µM; in the assay on TK-10 renal it was 59 µM; with SK-MEL-28 melanoma it was 60.4 µM; in the assay on SNB-19 CNS, 31.9 µM. In addition, the results for the TGI with NCI-H23 lung, in the assay with MALME-3M melanoma and in the assay on IGROV1 ovarian were 43.3 µM, 62.4 µM and 38.1 µM, respectively.

For `O=C1CCSC2=C1SCc1sccc12`, the TGI in the assay on CCRF-CEM leukemia, with TK-10 renal, in the assay with SK-MEL-28 melanoma, with SNB-19 CNS, in the assay on NCI-H23 lung and in the assay on MALME-3M melanoma was above 100 µM throughout. In the assay with IGROV1 ovarian, the TGI is above 100 µM.

In the case of `Nc1cc(=O)n(-c2ccccc2)c(=S)n1-c1ccccc1`, the TGI in the assay with U251 CNS, in the assay on CCRF-CEM leukemia, with A498 renal, in the assay on TK-10 renal, in the assay on SNB-19 CNS and in the assay on MALME-3M melanoma was above 100 µM throughout. Also, the TGI in the assay on IGROV1 ovarian was above 100 µM.

Consider `COc1ccc(C(=O)C(c2ccc(OCc3ccccc3)cc2)c2ccc(OCc3ccccc3)cc2)cc1`, for which the TGI in the assay on U251 CNS, in the assay on CCRF-CEM leukemia, with TK-10 renal, with SK-MEL-28 melanoma, in the assay with SNB-19 CNS and with NCI-H23 lung was above 100 µM in each case. The TGI in the assay on MALME-3M melanoma and with IGROV1 ovarian was above 100 µM each time.

These data come from PubChem BioAssay (NCI).
